Calls of active or inactive are those of the source.
Key:
[1] = target: T1, Voltage-gated N-type calcium channel alpha-1B subunit/Amyloid beta A4 precursor protein-binding family A member 1 (Homo sapiens, UniProt Q00975+Q02410); format: protein assay
Large T antigen = Large T antigen (Simian virus 40, UniProt P03070); format: functional, Betapolyomavirus macacae;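 note: Confirmatory-stage PubChem screen for compounds that inhibit SV40 T antigen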
Estrogen receptor = target: T2, Estrogen receptor (Homo sapiens, UniProt P03372);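 note: potency for inhibiting coactivator peptide recruitment to the receptor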
T2 sequence (P03372 whole entry): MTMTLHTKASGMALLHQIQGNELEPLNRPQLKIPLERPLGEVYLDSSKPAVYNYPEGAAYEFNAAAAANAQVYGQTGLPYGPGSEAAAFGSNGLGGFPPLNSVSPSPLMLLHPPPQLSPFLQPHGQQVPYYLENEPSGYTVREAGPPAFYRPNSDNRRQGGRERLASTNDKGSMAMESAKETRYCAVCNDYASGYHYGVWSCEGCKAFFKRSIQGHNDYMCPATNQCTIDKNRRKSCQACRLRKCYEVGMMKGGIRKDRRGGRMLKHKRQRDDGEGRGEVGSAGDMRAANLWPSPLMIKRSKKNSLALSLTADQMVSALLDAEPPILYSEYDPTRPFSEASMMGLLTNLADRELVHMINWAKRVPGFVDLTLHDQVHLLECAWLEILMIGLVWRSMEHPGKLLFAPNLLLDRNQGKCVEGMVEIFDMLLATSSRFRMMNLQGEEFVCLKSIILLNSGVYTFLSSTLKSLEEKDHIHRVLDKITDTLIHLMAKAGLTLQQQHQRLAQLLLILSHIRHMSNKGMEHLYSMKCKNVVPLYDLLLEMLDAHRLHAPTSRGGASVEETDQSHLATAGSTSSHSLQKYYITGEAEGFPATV

[2] = target: T1, Voltage-gated N-type calcium channel alpha-1B subunit/Amyloid beta A4 precursor protein-binding family A member 1; format: protein assay; remark: listed apart in the source
[3] = target: Induced myeloid leukemia cell differentiation protein Mcl-1 (Homo sapiens, UniProt Q07820); assay: blockers of MCL1 binding to BIM peptide – biochemical, fluorescence polarization, BIM-BH3 peptide, 1536-well, dose response (AID 2217)
Estrogen receptor beta = Estrogen receptor beta (Homo sapiens, UniProt Q92731);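 note: recombinant ER-beta bound to coactivator SRC1 peptide in presence of estradiol agonist; inhibitors block coactivator peptide binding and lower the FRET signal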
Bcl-2-like protein 1 = Bcl-2-like protein 1 (Homo sapiens, UniProt Q07817); assay: blockers of BCLXL peptide binding – biochemical, fluorescence polarization, 1536-well, selectivity assay for MCL1 inhibitor project, dose response (AID 2218)
[4] = NIH-3T3 fibroblast cytotoxicity, dose response, cytotoxicity control, cell-based, fluorescence, Alamar Blue, secondary assay (AID 2327); format: functional;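 note: NIH-3T3 mouse fibroblasts cultured with fluconazole at 8 µg/mL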
[5] = system: Streptococcus sp. 'group A'; assay: Streptococcus pyogenes SK(-)GAS viability under kanamycin – luminescence, BacTiterGlo, confirmation, counter-screen for streptokinase expression inhibitor project, dose response (AID 1900); format: functional, organism-based
Streptokinase A = target: T3, Streptokinase A (Streptococcus pyogenes serotype M1, UniProt P10520); assay: viability-normalized secreted streptokinase activity reduction – plasminogen activation absorbance, OD405, dose response (AID 1914); format: functional, Streptococcus pyogenes M1 GAS;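 note: secreted streptokinase activity via plasminogen activation per viability signal from cell pellet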
T3 sequence (P10520 whole entry): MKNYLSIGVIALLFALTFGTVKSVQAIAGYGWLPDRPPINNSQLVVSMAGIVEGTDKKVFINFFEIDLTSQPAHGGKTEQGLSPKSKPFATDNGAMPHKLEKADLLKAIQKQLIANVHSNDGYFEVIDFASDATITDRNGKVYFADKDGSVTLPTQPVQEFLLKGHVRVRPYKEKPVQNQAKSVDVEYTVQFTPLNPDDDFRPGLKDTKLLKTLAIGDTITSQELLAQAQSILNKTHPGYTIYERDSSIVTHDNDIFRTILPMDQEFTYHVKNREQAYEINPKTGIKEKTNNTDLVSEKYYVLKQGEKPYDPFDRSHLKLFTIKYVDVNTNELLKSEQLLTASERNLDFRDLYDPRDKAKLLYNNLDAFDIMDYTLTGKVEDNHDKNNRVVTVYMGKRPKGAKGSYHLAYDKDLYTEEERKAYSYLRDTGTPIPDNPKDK

[6] = fluconazole-exposed Candida albicans growth modulators – fluorescence, retest, confirmation (AID 2467); format: functional, cell-based
[7] = Trypanosoma cruzi growth suppression in host cells – NIH3T3 host cells, beta-gal luminescence, confirmation (AID 2044); format: functional, cell-based;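 note: intracellular parasites grown in NIH/3T3 mouse fibroblasts as host cells; luminescent beta-galactosidase reporter signal from transgenic T. cruzi replicating inside host cells; inhibitors lower the luminescence signal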
[8] = viability of PTEN-deleted HCT116 cells – cell-based, HCT116 PTEN knockout, dose response (AID 1047); format: functional;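 note: HCT116 colon tumor cells with PTEN knocked out; cells exposed to compound for 60 hours before readout; potency for loss of cell viability measured by luminescence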
[9] = target: T4, Serine/threonine-protein phosphatase (Candida dubliniensis (strain CD36 / CBS 7987 / NCPF 3949 / NRRLY-17841) (Yeast), UniProt B9W6M3); assay: blockers of CaCl2-induced CDRE-lacZ signaling – S. cerevisiae, luminescence, secondary, dose response (AID 2388); format: functional, cell-based;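 note: yeast reporter cells carrying a calcineurin-responsive lacZ construct stimulated with calcium chloride; luminescent beta-galactosidase reporter signal in whole cells rather than isolated phosphatase activity; potency for inhibition where a drop in reporter signal means calcineurin blockade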
T4 sequence (B9W6M3 whole entry): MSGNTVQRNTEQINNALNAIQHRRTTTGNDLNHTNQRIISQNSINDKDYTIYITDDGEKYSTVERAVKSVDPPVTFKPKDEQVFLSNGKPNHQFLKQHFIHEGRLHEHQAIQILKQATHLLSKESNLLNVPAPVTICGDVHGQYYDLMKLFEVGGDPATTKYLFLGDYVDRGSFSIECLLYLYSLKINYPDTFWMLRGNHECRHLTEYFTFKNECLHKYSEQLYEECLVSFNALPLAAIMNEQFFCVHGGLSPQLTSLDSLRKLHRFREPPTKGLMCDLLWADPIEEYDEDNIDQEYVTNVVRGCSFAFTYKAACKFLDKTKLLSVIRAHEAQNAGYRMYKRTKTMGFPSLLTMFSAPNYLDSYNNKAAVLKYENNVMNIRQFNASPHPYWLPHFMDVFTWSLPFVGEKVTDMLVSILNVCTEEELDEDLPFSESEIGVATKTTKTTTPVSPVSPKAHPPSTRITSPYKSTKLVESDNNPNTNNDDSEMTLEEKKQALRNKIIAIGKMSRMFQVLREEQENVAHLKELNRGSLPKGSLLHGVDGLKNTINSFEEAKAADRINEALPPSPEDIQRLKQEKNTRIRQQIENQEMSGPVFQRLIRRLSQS

[10] = NIH3T3 cell viability loss – ATP luminescence, mouse fibroblasts, counter-screen, dose response (AID 2010); format: functional, cell-based;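 note: cells exposed to compound for about 90 hours before reading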
[11] = viability of HCT116 lacking mutant beta-catenin – cell-based, human colon tumor, dose response (AID 1045); format: functional;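 note: HCT116 colon tumor cells with beta catenin knocked out; cells exposed to compound for 60 hours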
Streptococcus = assay: GAS UMAA2166 growth inhibition – luminescence, BacTiterGlo, counter-screen for streptokinase expression inhibitor project, dose response (AID 1915); format: functional, organism-based;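 note: potency for reduction of bacterial viability or growth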
[12] = target: T5, Microphthalmia-associated transcription factor (Homo sapiens, UniProt O75030); assay: reducers of TRPM1 reporter luminescence, concentration series – cell-based, SK-MEL-5, cherry-picked, set 3, MITF inhibitor project, dose response (AID 493073); format: functional;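 note: SK-MEL-5 melanoma cells with luciferase driven by the MITF target TRPM1 promoter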
T5 sequence (O75030 whole entry): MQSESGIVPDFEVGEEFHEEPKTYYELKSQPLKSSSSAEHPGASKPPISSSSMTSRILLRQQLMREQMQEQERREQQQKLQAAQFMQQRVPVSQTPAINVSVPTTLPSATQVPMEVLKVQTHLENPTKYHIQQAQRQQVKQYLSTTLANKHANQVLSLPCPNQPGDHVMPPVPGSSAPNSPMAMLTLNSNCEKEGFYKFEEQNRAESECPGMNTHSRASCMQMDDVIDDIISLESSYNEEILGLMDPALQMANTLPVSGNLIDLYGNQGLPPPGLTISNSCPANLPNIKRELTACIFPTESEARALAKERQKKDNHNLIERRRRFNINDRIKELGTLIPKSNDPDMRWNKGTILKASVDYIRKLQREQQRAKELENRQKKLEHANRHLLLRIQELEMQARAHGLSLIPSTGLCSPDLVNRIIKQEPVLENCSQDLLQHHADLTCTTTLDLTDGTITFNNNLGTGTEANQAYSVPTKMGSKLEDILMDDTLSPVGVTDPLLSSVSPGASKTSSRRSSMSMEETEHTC

[13] = target: ATP-dependent molecular chaperone HSP82 (Candida albicans (strain WO-1) (Yeast), UniProt C4YTQ8); assay: steroid-induced GRE reporter decrease in yeast – S. cerevisiae, luminescence, Hsp90 inhibitor project, dose response (AID 2400); format: functional, cell-based;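 note: beta-galactosidase luminescence from glucocorticoid response element reporter as proxy for Hsp90 function; inhibitor potency where signal loss means Hsp90 inhibition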
[14] = target: T6, RNA-binding protein pos-1 (Caenorhabditis elegans, UniProt G5EF15); assay: disruptors of C. elegans POS-1 RNA interaction – biochemical, fluorescence polarization, dose response (AID 1964);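 note: purified POS-1 fused to maltose binding protein made in E. coli; potency of compounds blocking POS-1 binding to fluorescent RNA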
T6 sequence (G5EF15 whole entry): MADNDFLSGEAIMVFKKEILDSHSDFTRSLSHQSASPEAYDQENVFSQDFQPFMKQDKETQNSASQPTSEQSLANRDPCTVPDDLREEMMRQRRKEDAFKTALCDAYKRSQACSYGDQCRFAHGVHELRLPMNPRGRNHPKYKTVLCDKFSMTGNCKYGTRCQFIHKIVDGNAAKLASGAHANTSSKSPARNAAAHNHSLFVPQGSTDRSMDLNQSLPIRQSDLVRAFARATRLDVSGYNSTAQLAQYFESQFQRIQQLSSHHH

[15] = target: T7, Zinc finger protein mex-5 (Caenorhabditis elegans, UniProt Q9XUB2); assay: potency of MEX-5 RNA-binding blockers – biochemical, C. elegans, fluorescence polarization, dose response (AID 1960)
T7 sequence (Q9XUB2 whole entry): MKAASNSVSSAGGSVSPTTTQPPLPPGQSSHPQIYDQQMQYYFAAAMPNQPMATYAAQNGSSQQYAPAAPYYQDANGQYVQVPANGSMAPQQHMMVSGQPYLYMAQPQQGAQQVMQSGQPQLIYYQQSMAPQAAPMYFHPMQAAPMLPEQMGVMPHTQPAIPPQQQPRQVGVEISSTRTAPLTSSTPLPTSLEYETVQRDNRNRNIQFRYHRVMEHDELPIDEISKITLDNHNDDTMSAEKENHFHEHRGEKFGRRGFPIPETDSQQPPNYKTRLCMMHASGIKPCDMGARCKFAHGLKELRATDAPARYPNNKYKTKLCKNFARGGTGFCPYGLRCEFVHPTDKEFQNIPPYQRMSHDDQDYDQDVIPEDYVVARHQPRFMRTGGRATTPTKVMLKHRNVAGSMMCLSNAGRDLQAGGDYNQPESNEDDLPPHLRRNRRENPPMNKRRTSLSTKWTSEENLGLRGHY

[16] = antibacterial activity against E. coli NEB5alpha – luminescence, counter-screen for MEX-5/POS-1 RNA-binding inhibitor project, dose response (AID 1959); format: functional
[17] = M. tuberculosis H37Rv growth inhibitors, H37Rv strain (AID 1626); format: functional

T1 sequence (Q00975 whole entry): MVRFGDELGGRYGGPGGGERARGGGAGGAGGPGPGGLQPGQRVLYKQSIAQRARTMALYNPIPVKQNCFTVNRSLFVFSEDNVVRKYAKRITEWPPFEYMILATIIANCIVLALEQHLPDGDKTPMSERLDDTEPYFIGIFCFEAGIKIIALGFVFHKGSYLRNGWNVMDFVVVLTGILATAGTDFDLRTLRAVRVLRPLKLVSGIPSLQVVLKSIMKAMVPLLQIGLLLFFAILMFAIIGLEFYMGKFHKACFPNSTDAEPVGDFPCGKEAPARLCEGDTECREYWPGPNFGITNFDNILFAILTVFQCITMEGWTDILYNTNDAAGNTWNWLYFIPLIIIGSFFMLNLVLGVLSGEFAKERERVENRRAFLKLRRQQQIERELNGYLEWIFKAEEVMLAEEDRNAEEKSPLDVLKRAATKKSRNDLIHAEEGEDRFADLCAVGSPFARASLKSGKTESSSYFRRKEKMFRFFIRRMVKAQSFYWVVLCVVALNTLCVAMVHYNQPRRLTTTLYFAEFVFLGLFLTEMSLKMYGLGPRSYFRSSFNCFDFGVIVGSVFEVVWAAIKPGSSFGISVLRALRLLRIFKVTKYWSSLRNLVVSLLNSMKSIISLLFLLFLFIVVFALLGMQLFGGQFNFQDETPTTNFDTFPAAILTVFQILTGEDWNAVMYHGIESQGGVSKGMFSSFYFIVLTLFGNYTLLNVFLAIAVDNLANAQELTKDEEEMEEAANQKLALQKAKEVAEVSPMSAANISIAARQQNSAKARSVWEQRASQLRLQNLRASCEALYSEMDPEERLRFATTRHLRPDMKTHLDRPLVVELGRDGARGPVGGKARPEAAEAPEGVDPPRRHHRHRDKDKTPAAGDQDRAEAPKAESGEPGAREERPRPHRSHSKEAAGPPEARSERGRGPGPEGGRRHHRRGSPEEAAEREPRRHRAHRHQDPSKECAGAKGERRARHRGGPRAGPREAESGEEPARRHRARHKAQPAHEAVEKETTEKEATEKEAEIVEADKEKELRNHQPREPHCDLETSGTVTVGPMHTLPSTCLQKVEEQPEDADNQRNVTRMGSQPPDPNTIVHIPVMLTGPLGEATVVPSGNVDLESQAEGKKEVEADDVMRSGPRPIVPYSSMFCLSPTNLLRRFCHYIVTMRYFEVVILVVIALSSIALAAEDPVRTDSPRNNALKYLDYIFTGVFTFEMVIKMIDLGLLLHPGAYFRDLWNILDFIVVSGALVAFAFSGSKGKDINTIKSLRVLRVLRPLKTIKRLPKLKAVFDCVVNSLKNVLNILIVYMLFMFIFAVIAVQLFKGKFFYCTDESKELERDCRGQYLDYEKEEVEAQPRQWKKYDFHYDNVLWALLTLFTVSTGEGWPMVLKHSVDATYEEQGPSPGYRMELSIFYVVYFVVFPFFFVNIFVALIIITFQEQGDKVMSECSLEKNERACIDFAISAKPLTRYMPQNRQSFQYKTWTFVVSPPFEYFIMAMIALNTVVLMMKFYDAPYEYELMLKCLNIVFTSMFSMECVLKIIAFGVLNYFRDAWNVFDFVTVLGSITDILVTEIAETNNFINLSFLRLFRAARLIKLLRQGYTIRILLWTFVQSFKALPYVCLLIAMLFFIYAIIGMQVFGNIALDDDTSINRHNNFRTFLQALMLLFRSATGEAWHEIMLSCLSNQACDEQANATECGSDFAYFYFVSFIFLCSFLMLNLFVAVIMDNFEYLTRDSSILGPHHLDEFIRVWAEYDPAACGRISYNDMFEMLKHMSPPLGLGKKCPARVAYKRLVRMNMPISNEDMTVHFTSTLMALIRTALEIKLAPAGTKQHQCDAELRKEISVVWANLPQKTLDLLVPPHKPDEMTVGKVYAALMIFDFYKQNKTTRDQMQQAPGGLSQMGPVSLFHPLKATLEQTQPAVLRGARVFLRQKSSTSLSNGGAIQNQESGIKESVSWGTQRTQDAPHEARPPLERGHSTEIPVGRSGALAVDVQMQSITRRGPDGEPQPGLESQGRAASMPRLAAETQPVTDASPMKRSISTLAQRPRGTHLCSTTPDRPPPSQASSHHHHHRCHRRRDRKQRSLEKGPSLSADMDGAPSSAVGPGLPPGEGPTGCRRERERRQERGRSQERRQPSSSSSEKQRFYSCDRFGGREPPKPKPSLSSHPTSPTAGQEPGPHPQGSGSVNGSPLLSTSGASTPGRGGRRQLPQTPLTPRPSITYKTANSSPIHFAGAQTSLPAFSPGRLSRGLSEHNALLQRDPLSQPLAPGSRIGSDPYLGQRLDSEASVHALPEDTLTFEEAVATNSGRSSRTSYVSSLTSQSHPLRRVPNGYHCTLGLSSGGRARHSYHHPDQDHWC
T1 sequence (Q02410 whole entry): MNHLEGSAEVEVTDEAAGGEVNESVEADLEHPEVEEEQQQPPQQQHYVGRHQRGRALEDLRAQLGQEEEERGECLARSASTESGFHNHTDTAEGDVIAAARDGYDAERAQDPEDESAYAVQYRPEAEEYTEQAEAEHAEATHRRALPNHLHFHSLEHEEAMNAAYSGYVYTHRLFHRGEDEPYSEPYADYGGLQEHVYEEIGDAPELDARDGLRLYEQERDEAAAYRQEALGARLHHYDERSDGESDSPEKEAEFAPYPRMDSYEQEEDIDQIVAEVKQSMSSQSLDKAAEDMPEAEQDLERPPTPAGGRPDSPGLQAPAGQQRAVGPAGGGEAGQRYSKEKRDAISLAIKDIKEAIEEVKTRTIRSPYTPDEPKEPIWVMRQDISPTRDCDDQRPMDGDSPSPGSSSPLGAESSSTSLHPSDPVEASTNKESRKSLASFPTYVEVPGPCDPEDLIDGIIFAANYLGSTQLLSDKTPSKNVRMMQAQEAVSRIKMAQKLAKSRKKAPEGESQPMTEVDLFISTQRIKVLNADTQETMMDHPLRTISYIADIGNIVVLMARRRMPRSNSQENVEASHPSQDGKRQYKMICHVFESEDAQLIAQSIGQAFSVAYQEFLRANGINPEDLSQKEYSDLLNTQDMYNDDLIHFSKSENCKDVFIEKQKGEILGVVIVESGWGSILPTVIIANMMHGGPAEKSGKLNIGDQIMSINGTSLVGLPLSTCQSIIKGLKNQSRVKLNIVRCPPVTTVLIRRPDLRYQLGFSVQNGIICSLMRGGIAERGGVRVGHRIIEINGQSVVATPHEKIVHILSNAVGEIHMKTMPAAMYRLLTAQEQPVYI
Chain of Bcl-2-like protein 1 (Q07817 whole entry): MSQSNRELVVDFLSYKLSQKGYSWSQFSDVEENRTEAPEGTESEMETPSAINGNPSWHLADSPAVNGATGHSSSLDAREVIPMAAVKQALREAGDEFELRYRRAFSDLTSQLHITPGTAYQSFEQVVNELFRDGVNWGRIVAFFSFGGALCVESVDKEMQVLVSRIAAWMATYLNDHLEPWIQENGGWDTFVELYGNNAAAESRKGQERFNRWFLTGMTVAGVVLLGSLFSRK
Chain of Induced myeloid leukemia cell differentiation protein Mcl-1 (Q07820 whole entry): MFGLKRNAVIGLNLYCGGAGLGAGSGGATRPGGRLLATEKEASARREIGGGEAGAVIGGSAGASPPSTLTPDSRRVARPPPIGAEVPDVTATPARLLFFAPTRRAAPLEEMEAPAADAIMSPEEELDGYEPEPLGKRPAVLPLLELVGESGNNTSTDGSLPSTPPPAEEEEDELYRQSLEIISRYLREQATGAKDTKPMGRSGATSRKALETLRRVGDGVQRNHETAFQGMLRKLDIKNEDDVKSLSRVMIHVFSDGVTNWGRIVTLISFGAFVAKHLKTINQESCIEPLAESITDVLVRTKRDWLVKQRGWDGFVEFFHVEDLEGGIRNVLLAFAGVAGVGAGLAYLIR
Chain of Estrogen receptor beta (Q92731 whole entry): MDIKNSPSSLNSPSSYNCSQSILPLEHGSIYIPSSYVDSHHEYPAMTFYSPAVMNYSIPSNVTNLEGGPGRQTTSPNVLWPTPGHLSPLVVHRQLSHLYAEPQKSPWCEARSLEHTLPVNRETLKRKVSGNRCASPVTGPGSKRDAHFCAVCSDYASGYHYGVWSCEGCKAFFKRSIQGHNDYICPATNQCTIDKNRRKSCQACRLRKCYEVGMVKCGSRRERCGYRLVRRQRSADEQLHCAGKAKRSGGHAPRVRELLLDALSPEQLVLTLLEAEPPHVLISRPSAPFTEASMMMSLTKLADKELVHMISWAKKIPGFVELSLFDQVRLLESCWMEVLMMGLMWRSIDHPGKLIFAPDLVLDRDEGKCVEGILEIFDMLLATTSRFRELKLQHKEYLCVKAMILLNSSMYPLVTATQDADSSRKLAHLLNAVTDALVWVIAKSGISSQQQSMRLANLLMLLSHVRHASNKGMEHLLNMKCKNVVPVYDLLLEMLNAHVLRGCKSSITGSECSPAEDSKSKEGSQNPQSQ
Chain of Large T antigen (P03070 whole entry): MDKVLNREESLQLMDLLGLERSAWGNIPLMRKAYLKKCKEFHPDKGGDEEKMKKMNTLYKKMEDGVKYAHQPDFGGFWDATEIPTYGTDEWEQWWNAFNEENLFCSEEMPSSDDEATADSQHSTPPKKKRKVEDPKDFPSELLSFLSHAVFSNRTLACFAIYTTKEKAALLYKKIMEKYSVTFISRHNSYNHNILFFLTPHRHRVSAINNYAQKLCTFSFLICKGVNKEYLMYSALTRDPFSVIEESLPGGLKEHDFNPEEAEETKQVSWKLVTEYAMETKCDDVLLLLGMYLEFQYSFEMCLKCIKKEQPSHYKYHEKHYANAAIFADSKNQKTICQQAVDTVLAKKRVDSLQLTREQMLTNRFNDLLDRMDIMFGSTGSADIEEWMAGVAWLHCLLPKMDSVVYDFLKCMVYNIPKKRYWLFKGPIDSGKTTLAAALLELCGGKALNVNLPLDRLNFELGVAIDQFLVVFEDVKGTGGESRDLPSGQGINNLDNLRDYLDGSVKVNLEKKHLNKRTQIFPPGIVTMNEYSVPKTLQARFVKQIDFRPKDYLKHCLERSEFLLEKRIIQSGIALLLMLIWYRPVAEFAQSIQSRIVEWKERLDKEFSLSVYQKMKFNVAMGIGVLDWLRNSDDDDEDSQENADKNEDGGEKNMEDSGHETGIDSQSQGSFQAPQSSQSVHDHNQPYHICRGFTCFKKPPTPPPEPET

Compound: CCOc1ccc(N2CSC3=C(C#N)C(c4ccco4)CC(=O)N3C2)cc1 (configuration not stated)
- IC50 [1]: 21.6 µM (active)
- IC50 (Large T antigen): 13.8 µM (active)
- IC50 (Estrogen receptor): > 50 µM (not active)
- IC50 [2]: 9.68 µM (active)
- IC50 [3]: > 109 µM (not active)
- IC50 (Estrogen receptor beta): > 50 µM (not active)
- IC50 (Bcl-2-like protein 1): > 109 µM (not active)

Compound: O=C(CNc1ccc2ccccc2c1)N/N=C/c1ccc([N+](=O)[O-])o1
- EC50 [4]: > 160 µM (inactive)
- EC50 [5]: 11.1 µM (active)
- EC50 (Streptokinase A): > 150 µM (not active)
- EC50 [6]: 3.85 µM (active)
- EC50 [7]: < 0.1 µM (active)
- EC50 [8]: 14.2 µM (active)
- EC50 [9]: > 180 µM (inactive)
- EC50 [10]: > 60 µM (not active)
- EC50 [11]: 15.9 µM (active)
- EC50 (Streptococcus): > 150 µM (not active)
- AC50 [12]: 4.95 µM (active)
- EC50 [13]: > 160 µM (inactive)
- EC50 (cells): 0.019 µM (active)

Compound: Cc1ccc(C(=O)C2=C(O)C(=O)N(Cc3ccco3)C2c2cccc(Br)c2)o1 (configuration not stated)
- EC50 [14]: > 300 µM (not active)
- EC50 [5]: 6.16 µM (active)
- EC50 [15]: 35.6 µM (active)
- EC50 (Streptokinase A): > 150 µM (not active)
- EC50 [16]: 18.3 µM (inconclusive)
- EC50 (Streptococcus): 11.2 µM (active)

Compound: COc1ccc(OCCCC(=O)Nc2cccc(SC)c2)cc1
- IC50 [17]: > 100 µM (active)
